Structures can show the parent of a compound that is named as a salt. Where two headings read alike, the source gives them in different places.

The test system of one experiment is P. aeruginosa biofilm. Briefly: static 24 hour old biofilm in microtiter dishes, CFU after treatment. The settings on record: for synergistic antimicrobial effect in combination with acetic acid: combined with 0.5% acetic acid, static biofilm; for antimicrobial effect on static biofilm (CFU): 0.5% acetic acid. The class given is cell-based. An excerpt: AB minimal medium without acetic acid adjusted to different pH values was used as control.
AB minimal medium supplemented with increasing concentrations of tobramycin served as control. The biofilm were harvested and plated on LB plates to determine the CFU after treatment (For visual appearance “no growth” is arbitrarily given a CFU value of 2).
AB minimal medium without acetic acid, but supplemented with increasing concentrations of tobramycin served as control.
The wild-type P. aeruginosa PAO1 used for the planktonic and biofilm experiments was obtained from the Pseudomonas Genetic Stock Center (www.pseudomonas.med.ecu.edu, strain PAO0001). The wild-type S. aureus 8325-4, used for planktonic and biofilm experiments was described by Novick, R. P. 1967.
For plating, Luria broth (LB) medium mix with 2.0% agar was used. For all experiments including bacterial biofilms, AB minimal medium supplemented with glucose was used except if different is mentioned.
Planktonic cultures were grown in shake flasks at 37° C.
Static biofilm tolerance to acetic acid was assessed by exchanging the AB minimal medium of 24 h old biofilms with AB minimal medium supplemented with different concentrations of acetic acid or HCl as control. To raise the pH of either acetic acid or HCl, NaOH was added in different concentrations.
To elucidate a synergistic antimicrobial effect of acetic acid and antibiotics, static biofilms of P. aeruginosa were grown for 24 hours prior to subsequent treatment with increasing concentrations of tobramycin and 0.5% acetic acid in the pH interval 3-6.85. The pH was adjusted by supplementing the AB minimal medium with either HCl or NaOH.

For experiment [1], the system named is P. aeruginosa PAO1 biofilm. As to the kind of experiment: continuous flow chamber biofilm, 3-day-old, harvested and plated on LB plates for viability. It is filed as cell-based. The text has this: (§1) The wild-type P. aeruginosa PAO1 used for the planktonic and biofilm experiments was obtained from the Pseudomonas Genetic Stock Center (www.pseudomonas.med.ecu.edu, strain PAO0001). The wild-type S. aureus 8325-4, used for planktonic and biofilm experiments was described by Novick, R. P. 1967. For plating, Luria broth (LB) medium mix with 2.0% agar was used. For all experiments including bacterial biofilms, AB minimal medium supplemented with glucose was used except if different is mentioned. […] The continuous flow system is based on once through flow chambers perfused with sterile AB minimal medium containing 0.3 mM glucose as described by Christensen et al. (1999). Continuous flow biofilm tolerance to acetic acid was assessed by growing P. aeruginosa or S. aureus biofilms for three days, then subsequently at day three to four supplementing the AB minimal medium with different concentrations of acetic acid or HCl (HCL served as a as control to acetic acid treatments). […] Due to the buffer capacity of the AB minimal medium used, the pH of the solution became 4.33. […] After the treatment the biofilm biomasses were harvested mechanically from the flow chambers and plated on LB plates for determination of viability. […] The kinetics of antimicrobial activity against mature biofilms was tested by treating a 3-day-old continuous flow chamber biofilms of either P. aeruginosa with 0.5% or S. aureus with 1.0% acetic acid for 24 hours. Due to the buffer capacity of the AB minimal medium used the pH of the solution became 4.33. […] After the treatment the biofilms were harvested mechanically, by scraping with a sterile scalpel, from the flow chambers and plated on LB plates for determination of viable counts.

The subject of a further experiment is S. aureus 8325-4 biofilm.
Text: as §1

For experiment [2], the system named is clinical mucoid P. aeruginosa isolate biofilm.
For experiment [3], the system named is clinical non-mucoid P. aeruginosa isolate biofilm.
[4] abbreviates: 0.5% acetic acid, 24 hours, AB minimal medium, pH 4.33.
[5] abbreviates: 1.0% acetic acid, 24 hours, AB minimal medium, pH 4.33.

As for `O=C(O)c1cn(C2CC2)c2cc(N3CCNCC3)c(F)cc2c1=O` [ciprofloxaxine, reference compound], the “synergistic antimicrobial effect in combination with acetic acid” value in the experiment on P. aeruginosa biofilm was “analogous synergistic effects”.
For `NC[C@H]1O[C@H](O[C@H]2[C@H](O)[C@@H](O[C@H]3O[C@H](CO)[C@@H](O)[C@H](N)[C@H]3O)[C@H](N)C[C@@H]2N)[C@H](N)C[C@@H]1O` [tobramycin, reference compound], the “reduction of bacterial viability” value with P. aeruginosa biofilm (tobramycin alone, concentrations above 12.5 μg/ml) turned out to be 5 fold.
As for `Cl` [HCl, reference compound], the “eradication of mature biofilm (viability by plating)” value in experiment [1] (AB minimal medium adjusted to pH 4.33 using HCl, 24 hours (control)) is “had no effect”.
For the compound colistin [reference compound], the “synergistic antimicrobial effect in combination with acetic acid” value with P. aeruginosa biofilm is listed as “analogous synergistic effects”.
Turning to `CC(=O)O` [acetic acid], the “eradication of mature biofilm (viability by plating)” value is listed as “Complete eradication” in experiment [1] (0.5% acetic acid in sterile miliQ water); “completely eradicated” in experiment [1] (setting [4]); “completely eradicated” in experiment [1] (setting [5]); “reduced the number of viable cells” in the experiment with S. aureus 8325-4 biofilm (setting [4]); “Complete eradication” in the experiment with S. aureus 8325-4 biofilm (1.0% acetic acid in sterile miliQ water); “complete eradication” with S. aureus 8325-4 biofilm (setting [5]). Also, the “time to complete killing of all bacteria” value in experiment [1] (0.5% acetic acid, AB minimal medium, pH 4.33) was found to be 3 h; in the experiment on S. aureus 8325-4 biofilm (1.0% acetic acid, AB minimal medium, pH 4.33), 3 h. Further, the eradication of biofilm result in experiment [2] and in experiment [3] was “eradicates the biofilms” in each case. Besides, the “antibacterial effect on static biofilm (CFU)” value in the experiment on P. aeruginosa biofilm (0.5% acetic acid alone, pH 6.85) was “no antibacterial effect”. Moreover, the “antimicrobial effect on static biofilm (CFU)” value with P. aeruginosa biofilm (pH 5) is given as “reduced effect”; in the experiment on P. aeruginosa biofilm (pH 5.5 and above) it was “no effect”; in the experiment with P. aeruginosa biofilm (pH interval 3-4.76), “eradicated biofilms”.

The values are drawn from patent publication US9655840B2, “Wound care products” (RIGSHOSPITALET, COPENHAGEN UNIVERSITY HOSPITAL, priority 2009, dated 2017).
